Counter-ions that a name gives are not always drawn. Like-named read-outs stand apart in the source and are kept apart here.
Columns and labels:
Type in all cases: physicochemical
[1] = Dynamic vapor sorption (DVS) at room temperature and 40° C.
Experimental: DVS was measured via a SMS (Surface Measurement System) DVS Intrinsic. Parameters for DVS data collection were as follows:
A second endotherm (having an onset at 121.5° C.) associated with melting of the dehydrated phase (ΔH: 15.20 J/g) was followed by a rapid decomposition as temperature continued to increase (FIG. 3). Because of the low onset of dehydration, the DVS was measured at both room temperature and at 40° C. to predict the stability of the crystalline phase at 40° C. […] A 1.5% weight loss was observed between 95% and 20% RH, and a 2.9% weight loss was observed between 20% and 0% RH, for a total loss of […] across the entire cycle. […] After measuring the hygroscopicity by DVS, an XRPD pattern was collected for comparison to the original material and found to correspond well to the pattern of the room temperature sample post-DVS temperature cycle (FIG. 6).

[2] = Heckel analysis on compaction simulator (yield pressure, strain rate sensitivity, crushing strength); conditions: for yield pressure, slow speed: punch speed 0.1 mm/s; for yield pressure, fast press speed: punch speed 300 mm/s
Experimental: The aim of the Heckel test is to compress the material under controlled conditions to derive the yield pressure of the bulk material. A known weight of material is compressed within a 10 mm diameter die with flat faced punches moving at a set speed. The force on the punch is accurately measured at frequent intervals whilst the displacement of the punches is used to calculate the volume of the powder. The yield pressure is calculated at slow and fast punch speeds to assess the time-dependent component to deformation of the material.
A known weight of pure drug is compacted to theoretical zero porosity using 10 mm diameter flat faced punches. The Compaction Simulator was used under the following conditions:
During compression the location of the punch tips are accurately determined, and the force measured by load cells producing a record of the primary compression parameters. Temperature and humidity were monitored at intervals during the test.
The data were analyzed by the Compaction Analysis software program to generate values for yield pressure (Py) using the Heckel equation:
[formula] where D=the relative density of the compact; • P=Pressure applied; and • K=Gradient of the line in the linear region; [Reference: R. W. Heckel. Trans. Metall. Soc. AIME 221 (1961)1001-1008].
For some materials, the deformation characteristics change with rate of applied force. This can be estimated by calculating the Strain Rate Sensitivity. The yield pressure at high speed compression is compared to that at slow speed using the following equation:
[formula] [Reference: R. J. Roberts and R. C. Roe, Chem. Eng. Sci. 42(1987) p 903]. Results

[3] = Tablet stability: C17 epimer in sealed bottles stored at 40° C./75% RH; conditions: tablet dosage form, sealed bottle, 1 or 2 months, versus mono-citrate salt
Experimental: FIG. 12 is a graph comparing the amount of the C17 epimer, a degradation product of Compound 1, over time for a tablet formulation containing Compound 1 hemi-citrate salt (Form I; left column in both “1 month” and “2 months”) or Compound 1 mono-citrate salt (Form A; right column in both “1 month” and “2 months”) in sealed bottles stored at 40° C./75% RH).

[4] = Gelation experiments in aqueous media; conditions: for gelation during tablet dissolution experiments: certain conditions
Experimental: To confirm these findings, controlled experiments were conducted where the free base, mono-citrate, and hemi-citrate salts of Compound 1 were dissolved in aqueous media at concentrations between 0.5 mg/mL and 10 mg/mL. The dissolution experiments were performed in either 0.1 N HCl, water, or pH 7.4 buffer as aqueous media.

[5] = Tablet dissolution: percent release of Compound 1 from acidified tablet formulation
Experimental: FIG. 13 is a graph showing percent release of Compound 1 over time for an acidified tablet formulation containing Compound 1 hemi-citrate salt Form I. Tablets were used initially or maintained at 40° C./75% RH for 2 weeks, 1 month, or 2 months.
FIG. 14 is a graph showing percent release of Compound 1 over time for an acidified tablet formulation containing Compound 1 mono-citrate salt (Form A). Tablets were used initially or stored at 40° C./75% RH for 2 weeks, 1 month, or 2 months.

[6] = fast speed 300 mm/s, single runs, 21.7° C./38.9% RH

In the case of `COC[C@@]1(O)CC[C@@]2(C)[C@@H](CC[C@@H]3[C@@H]2CC[C@]2(C)[C@@H](C(=O)Cn4ccnc4)CC[C@@H]32)C1` [Compound 1 hemi-citrate salt Form I, 3α-Hydroxy-3β-methoxymethyl-21-(1′-imidazolyl)-5α-pregnan-20-one], the hygroscopicity [1] is reported as “slightly hygroscopic”, the “reversibility of water loss” value ([1]; 40° C.) is reported as “fully reversible” and the total loss ([1]; 40° C.) is reported as 5.4%. For the same molecule, the “water absorption from 20% to 80% RH” value ([1]; 40° C.) was 1.8%, the “water lost between 95% and 20% RH” value ([1]; 40° C.) was 2.2% and the “water lost from 20% to 0% RH” value ([1]; 40° C.) was 3.2%. The “reversibility of water loss” value ([1]; room temperature) was “fully reversible”, the “total loss across the entire cycle” value ([1]; room temperature) was 4.3% and the “water uptake between 20% and 80% RH” value ([1]; room temperature) was 1.2%. The “weight loss between 20% and 0% RH” value ([1]; room temperature) was 2.9%, the “weight loss between 95% and 20% RH” value ([1]; room temperature) was 1.5% and the “Strain rate sensitivity (SRS)” value ([2]; fast versus slow speed yield pressure) was 21.4%. For the same molecule, the “yield pressure, slow speed” value [2] was 69 MPa.
In the case of `COC[C@@]1(O)CC[C@@]2(C)[C@@H](CC[C@@H]3[C@@H]2CC[C@]2(C)[C@@H](C(=O)Cn4ccnc4)CC[C@@H]32)C1` [Compound 1 hemi-citrate salt, 3α-Hydroxy-3β-methoxymethyl-21-(1′-imidazolyl)-5α-pregnan-20-one], the “degradation product (C17-epimer) generated” value [3] is reported as “less degradation product”, the “classification of compaction properties” value [2] is reported as “soft ductile compaction properties” and the “yield pressure, fast press speed” value [2] is reported as 84 MPa. The gelation ([4]; any of the aqueous media (0.1 N HCl, water, pH 7.4 buffer), concentrations up to 10 mg/mL) was “did not gel”, the “gelation during tablet dissolution experiments” value [4] was “not prone to gelation” and the “release of Compound 1 over time” value ([5]; acidified formulation, initial and open dish at 40° C./75% RH for 2 weeks, 1 month or 2 months) was “greater than the release of Compound 1 from the same acidified formulation of the Compound 1 mono-citrate salt”. The “susceptibility to dissolution slow-down of the tablet” value ([5]; tablet, versus mono-citrate salt) was “less susceptible than the Compound 1 mono-citrate salt to dissolution slow-down”.
With `COC[C@@]1(O)CC[C@@]2(C)[C@@H](CC[C@@H]3[C@@H]2CC[C@]2(C)[C@@H](C(=O)Cn4ccnc4)CC[C@@H]32)C1.O=C(O)CC(O)(CC(=O)O)C(=O)O` [Compound 1 mono-citrate salt Form A] the Compact observations [2, 6] was “Laminated”, the “Ejection Force” value [2, 6] was 0.740 kN and the “yield pressure, slow speed” value [2] was 84 MPa. The Compact observations ([2]; slow speed 0.1 mm/s, single runs, 21.6° C./37.1% RH) was “Ok”.
In the case of `COC[C@@]1(O)CC[C@@]2(C)[C@@H](CC[C@@H]3[C@@H]2CC[C@]2(C)[C@@H](C(=O)Cn4ccnc4)CC[C@@H]32)C1.O=C(O)CC(O)(CC(=O)O)C(=O)O` [Compound 1 mono-citrate salt, 3α-Hydroxy-3β-methoxymethyl-21-(1′-imidazolyl)-5α-pregnan-20-one, reference compound], the “classification of compaction properties” value ([2]; from slow speed yield pressure) is reported as “moderately brittle/ductile compaction properties”, the “yield pressure, fast press speed” value [2] is reported as 109 MPa and the gelation ([4]; 0.1 N HCl, 5 mg/mL) is reported as “rapidly gelled”. For the same molecule, the “gelation during tablet dissolution experiments” value [4] was “significant gelation” and the gelation ([4]; water or pH 7.4 buffer) was “did not gel”.
With `COC[C@@]1(O)CC[C@@]2(C)[C@@H](CC[C@@H]3[C@@H]2CC[C@]2(C)[C@@H](C(=O)Cn4ccnc4)CC[C@@H]32)C1` [Compound 1, 3α-Hydroxy-3β-methoxymethyl-21-(1′-imidazolyl)-5α-pregnan-20-one] the gelation ([4]; 0.1 N HCl, concentrations as low as 1 mg/mL) was “rapidly gelled” and the gelation ([4]; water or pH 7.4 buffer) was “did not gel”.
